# Key:
# [1] = Cytotoxicity against human HepG2 cells after 3 days; assay type: cell-based
# [2] = tested on: Mycobacterium tuberculosis; assay: Antimycobacterial activity against Mycobacterium tuberculosis H37Rv ATCC 27294 after 5 days by spectrophotometry; assay type: functional; settings: H37Rv ATCC 27294, 120 h
# [3] = tested on: Mycobacterium tuberculosis; assay: Bactericidal activity against Mycobacterium tuberculosis H37Rv ATCC 27294 after 5 days by spectrophotometry; assay type: functional
# [4] = Cytotoxicity against hamster BHK21 cells after 3 days; assay type: cell-based, Mesocricetus auratus, BHK-21
# [5] = tested on: Mycobacterium tuberculosis; assay: Antimycobacterial activity against Mycobacterium tuberculosis TN2351 after 5 days by spectrophotometry; assay type: functional; settings: TN2351, 120 h
# [6] = tested on: Mycobacterium tuberculosis; assay: Antimycobacterial activity against Mycobacterium tuberculosis TN1040 after 5 days by spectrophotometry; assay type: functional; settings: TN1040, 120 h
# [7] = tested on: Mycobacterium tuberculosis; assay: Antimycobacterial activity against Mycobacterium tuberculosis TN1037 after 5 days by spectrophotometry; assay type: functional; settings: TN1037, 120 h
# [8] = tested on: Mycobacterium tuberculosis; assay: Antimycobacterial activity against Mycobacterium tuberculosis TN913 after 5 days by spectrophotometry; assay type: functional; settings: TN913, 120 h
# [9] = tested on: Mycobacterium tuberculosis; assay: Antimycobacterial activity against Mycobacterium tuberculosis AH9584 after 5 days by spectrophotometry; assay type: functional; settings: AH9584, 120 h
# [10] = tested on: Mycobacterium tuberculosis; assay: Antimycobacterial activity against Mycobacterium tuberculosis TN994 after 5 days by spectrophotometry; assay type: functional; settings: TN994, 120 h
# [11] = tested on: Mycobacterium tuberculosis; assay: Antimycobacterial activity against Mycobacterium tuberculosis TN675 after 5 days by spectrophotometry; assay type: functional; settings: TN675, 120 h
# [12] = tested on: Mycobacterium tuberculosis; assay: Antimycobacterial activity against Mycobacterium tuberculosis TN4259 after 5 days by spectrophotometry; assay type: functional; settings: TN4259, 120 h
# [13] = tested on: Mycobacterium tuberculosis; assay: Antimycobacterial activity against Mycobacterium tuberculosis E8133 after 5 days by spectrophotometry; assay type: functional; settings: E8133, 120 h
# [14] = tested on: Mycobacterium tuberculosis; assay: Antimycobacterial activity against Mycobacterium tuberculosis W4 after 5 days by spectrophotometry; assay type: functional; settings: W4, 120 h
# [15] = tested on: Mycobacterium tuberculosis; assay: Antimycobacterial activity against Mycobacterium tuberculosis TN1008 after 5 days by spectrophotometry; assay type: functional; settings: TN1008, 120 h
# [16] = tested on: Mycobacterium tuberculosis; assay: Antimycobacterial activity against Mycobacterium tuberculosis TN3183 after 5 days by spectrophotometry; assay type: functional; settings: TN3183, 120 h
# [17] = tested on: Mycobacterium tuberculosis; assay: Antimycobacterial activity against Mycobacterium tuberculosis TN2524 after 5 days by spectrophotometry; assay type: functional; settings: TN2524, 120 h
# [18] = tested on: Mycobacterium tuberculosis; assay: Antimycobacterial activity against Mycobacterium tuberculosis TN1082 after 5 days by spectrophotometry; assay type: functional; settings: TN1082, 120 h
# [19] = tested on: Mycobacterium tuberculosis; assay: Antimycobacterial activity against Mycobacterium tuberculosis BE11677 after 5 days by spectrophotometry; assay type: functional; settings: BE11677, 120 h
# [20] = tested on: Mycobacterium tuberculosis; assay: Antimycobacterial activity against Mycobacterium tuberculosis TN3979 after 5 days by spectrophotometry; assay type: functional; settings: TN3979, 120 h
# [21] = tested on: Mycobacterium tuberculosis; assay: Antimycobacterial activity against Mycobacterium tuberculosis TN1051 after 5 days by spectrophotometry; assay type: functional; settings: TN1051, 120 h
smiles,measurement,setting,value
O=C(CSc1nnc(-c2ccncc2)s1)Nc1ccccc1,CC50 at 72 h,[1],15.2 µM
same,MIC50,[2],0.18 µM
same,MBC90,[3],1.25 µM
same,CC50 at 72 h,[4],16.2 µM
O=C(CSc1nnc(-c2ccncc2)s1)NCc1ccccc1,CC50 at 72 h,[1],17.7 µM
same,MIC50,[2],0.19 µM
same,MBC90,[3],1.25 µM
same,CC50 at 72 h,[4],11.3 µM
O=C(CSc1nnc(-c2ccncc2)s1)NCc1ccccc1Cl,MIC50,[2],9.67 µM
O=C(CSc1nnc(-c2ccncc2)s1)NCc1ccc(Cl)cc1,CC50 at 72 h,[1],> 50 µM
same,MIC50,[2],11.7 µM
same,CC50 at 72 h,[4],> 50 µM
O=C(CSc1nnc(-c2ccncc2)s1)Nc1ccccc1Cl,CC50 at 72 h,[1],> 50 µM
same,MIC50,[2],8.52 µM
same,CC50 at 72 h,[4],> 50 µM
O=C(CSc1nnc(-c2ccncc2)s1)Nc1ccc(Cl)cc1,CC50 at 72 h,[1],> 50 µM
same,MIC50,[2],6.81 µM
same,CC50 at 72 h,[4],> 50 µM
O=C(CSc1nnc(-c2ccncc2)s1)Nc1c(Cl)cccc1Cl,MIC50,[2],> 20 µM
O=C(CSc1nnc(-c2ccncc2)s1)Nc1ccc(Cl)cc1Cl,MIC50,[2],> 20 µM
CC(Sc1nnc(-c2ccncc2)s1)C(=O)Nc1ccccc1 (stereo unspecified),CC50 at 72 h,[1],> 50 µM
same,MIC50,[2],1.48 µM
same,MBC90,[3],5 µM
same,CC50 at 72 h,[4],> 50 µM
CC(Sc1nnc(-c2ccncc2)s1)C(=O)NCc1ccccc1 (stereo unspecified),CC50 at 72 h,[1],> 50 µM
same,MIC50,[2],1.15 µM
same,MBC90,[3],5 µM
same,CC50 at 72 h,[4],> 50 µM
CC(Sc1nnc(-c2ccncc2)s1)C(=O)NCc1ccccc1Cl (stereo unspecified),CC50 at 72 h,[1],> 50 µM
same,MIC50,[2],1.26 µM
same,MBC90,[3],5 µM
same,CC50 at 72 h,[4],> 50 µM
CC(Sc1nnc(-c2ccncc2)s1)C(=O)NCc1ccc(Cl)cc1 (stereo unspecified),MIC50,[2],> 20 µM
CC(Sc1nnc(-c2ccncc2)s1)C(=O)Nc1ccccc1Cl (stereo unspecified),CC50 at 72 h,[1],> 50 µM
same,MIC50,[2],1.04 µM
same,MBC90,[3],5 µM
same,CC50 at 72 h,[4],> 50 µM
CC(Sc1nnc(-c2ccncc2)s1)C(=O)Nc1ccc(Cl)cc1 (stereo unspecified),CC50 at 72 h,[1],> 50 µM
same,MIC50,[2],0.12 µM
same,MBC90,[3],1.25 µM
same,CC50 at 72 h,[4],> 50 µM
CC(Sc1nnc(-c2ccncc2)s1)C(=O)Nc1c(Cl)cccc1Cl (stereo unspecified),CC50 at 72 h,[1],> 50 µM
same,MIC50,[2],1.19 µM
same,MBC90,[3],5 µM
same,CC50 at 72 h,[4],> 50 µM
CC(Sc1nnc(-c2ccncc2)s1)C(=O)Nc1ccc(Cl)cc1Cl (stereo unspecified),CC50 at 72 h,[1],> 50 µM
same,MIC50,[2],2.45 µM
same,MBC90,[3],5 µM
same,CC50 at 72 h,[4],> 50 µM
O=C(CCSc1nnc(-c2ccncc2)s1)Nc1ccccc1,CC50 at 72 h,[1],> 50 µM
same,MIC50,[2],0.61 µM
same,MBC90,[3],2.5 µM
same,CC50 at 72 h,[4],> 50 µM
O=C(CCSc1nnc(-c2ccncc2)s1)NCc1ccccc1,CC50 at 72 h,[1],14 µM
same,MIC50,[2],0.67 µM
same,MBC90,[3],2.5 µM
same,CC50 at 72 h,[4],18.7 µM
O=C(CCSc1nnc(-c2ccncc2)s1)NCc1ccccc1Cl,CC50 at 72 h,[1],> 50 µM
same,MIC50,[2],0.65 µM
same,MBC90,[3],2.5 µM
same,CC50 at 72 h,[4],> 50 µM
O=C(CCSc1nnc(-c2ccncc2)s1)NCc1ccc(Cl)cc1,CC50 at 72 h,[1],15.6 µM
same,MIC50,[2],0.63 µM
same,MBC90,[3],2.5 µM
same,CC50 at 72 h,[4],21.5 µM
O=C(CCSc1nnc(-c2ccncc2)s1)Nc1ccccc1Cl,CC50 at 72 h,[1],> 50 µM
same,MIC50,[2],0.62 µM
same,MBC90,[3],2.5 µM
same,CC50 at 72 h,[4],> 50 µM
O=C(CCSc1nnc(-c2ccncc2)s1)Nc1ccc(Cl)cc1,MIC,[5],0.25 µg/mL
same,MIC,[6],0.03 µg/mL
same,MIC,[7],0.06 µg/mL
same,CC50 at 72 h,[1],7.26 µM
same,MIC,[8],0.013 µg/mL
same,MIC,[9],0.25 µg/mL
same,MIC,[10],0.03 µg/mL
same,MIC,[11],0.013 µg/mL
same,MIC,[12],0.06 µg/mL
same,MIC,[13],0.13 µg/mL
same,MIC,[14],0.06 µg/mL
same,MIC,[15],0.06 µg/mL
same,MIC,[16],0.06 µg/mL
same,MIC,[2],0.015 µg/mL
same,MIC50,[2],0.07 µM
same,MIC,[17],0.25 µg/mL
same,MIC,[18],0.06 µg/mL
same,MIC,[19],0.25 µg/mL
same,MBC90,[3],1.25 µM
same,MIC,[20],0.13 µg/mL
same,CC50 at 72 h,[4],8.21 µM
same,MIC,[21],0.06 µg/mL
O=C(CCSc1nnc(-c2ccncc2)s1)Nc1c(Cl)cccc1Cl,CC50 at 72 h,[1],12.6 µM
same,MIC50,[2],0.59 µM
same,MBC90,[3],2.5 µM
same,CC50 at 72 h,[4],10.3 µM
O=C(CCSc1nnc(-c2ccncc2)s1)Nc1ccc(Cl)cc1Cl,CC50 at 72 h,[1],> 50 µM
same,MIC50,[2],0.55 µM
same,MBC90,[3],2.5 µM
same,CC50 at 72 h,[4],> 50 µM
CC(CSc1nnc(-c2ccncc2)s1)C(=O)Nc1ccccc1 (stereo unspecified),CC50 at 72 h,[1],> 50 µM
same,MIC50,[2],2.26 µM
same,MBC90,[3],5 µM
same,CC50 at 72 h,[4],> 50 µM
CC(CSc1nnc(-c2ccncc2)s1)C(=O)NCc1ccccc1 (stereo unspecified),CC50 at 72 h,[1],> 50 µM
same,MIC50,[2],2.51 µM
same,MBC90,[3],5 µM
same,CC50 at 72 h,[4],> 50 µM
CC(CSc1nnc(-c2ccncc2)s1)C(=O)NCc1ccccc1Cl (stereo unspecified),CC50 at 72 h,[1],> 50 µM
same,MIC50,[2],1.89 µM
same,MBC90,[3],5 µM
same,CC50 at 72 h,[4],> 50 µM
CC(CSc1nnc(-c2ccncc2)s1)C(=O)NCc1ccc(Cl)cc1 (stereo unspecified),MIC50,[2],1.68 µM
CC(CSc1nnc(-c2ccncc2)s1)C(=O)Nc1ccccc1Cl (stereo unspecified),CC50 at 72 h,[1],> 50 µM
same,MIC50,[2],2.05 µM
same,MBC90,[3],5 µM
same,CC50 at 72 h,[4],> 50 µM
CC(CSc1nnc(-c2ccncc2)s1)C(=O)Nc1ccc(Cl)cc1 (stereo unspecified),CC50 at 72 h,[1],> 50 µM
same,MIC50,[2],0.22 µM
same,MBC90,[3],1.25 µM
same,CC50 at 72 h,[4],> 50 µM
CC(CSc1nnc(-c2ccncc2)s1)C(=O)Nc1c(Cl)cccc1Cl (stereo unspecified),CC50 at 72 h,[1],> 50 µM
same,MIC50,[2],1.55 µM
same,MBC90,[3],5 µM
same,CC50 at 72 h,[4],> 50 µM
CC(CSc1nnc(-c2ccncc2)s1)C(=O)Nc1ccc(Cl)cc1Cl (stereo unspecified),CC50 at 72 h,[1],> 50 µM
same,MIC50,[2],1.48 µM
same,MBC90,[3],5 µM
same,CC50 at 72 h,[4],> 50 µM
S=c1[nH]nc(-c2ccncc2)s1,CC50 at 72 h,[1],19.7 µM
same,MIC50,[2],0.2 µM
same,MBC90,[3],1.25 µM
same,CC50 at 72 h,[4],14.7 µM
NNC(=O)c1ccncc1 [ISONIAZID],MIC,[5],0.06 µg/mL
same,MIC,[6],0.03 µg/mL
same,MIC,[7],0.03 µg/mL
same,MIC,[8],0.03 µg/mL
same,MIC,[9],0.19 µg/mL
same,MIC,[10],0.03 µg/mL
same,MIC,[11],0.03 µg/mL
same,MIC,[12],0.03 µg/mL
same,MIC,[13],0.08 µg/mL
same,MIC,[14],0.03 µg/mL
same,MIC,[15],0.06 µg/mL
same,MIC,[16],0.03 µg/mL
same,MIC,[2],0.03 µg/mL
same,MIC50,[2],0.03 µM
same,MIC,[17],0.06 µg/mL
same,MIC,[18],0.03 µg/mL
same,MIC,[19],0.2 µg/mL
same,MIC,[20],0.06 µg/mL
same,MIC,[21],0.03 µg/mL

# Reference: ChEMBL document CHEMBL3616410, “Linked pyridinyl-thiadiazoles: Design and synthesis as potential candidate for treatment of XDR and MDR tuberculosis” (Eur J Med Chem, 2015)
